Results on 2 compounds are retold here after patent publication US20260083729A1, “METHODS FOR TREATMENT OF BONE MARROW FAILURE AND RELATED CONDITIONS” (Imago Biosciences, Inc., priority 2022, published 2026).

Each structure is given as a SMILES string.

Series [1] has as its system long-term HSC (LT-HSC) cells. Briefly: In vivo expansion of long-term HSC (LT-HSC) cells in bone marrow of wild-type mice (flow cytometry). Also noted: species or system mice (C57/BL6). The following applies: oral gavage. On the procedure: (§1) The effect of LSD1 inhibitors on HSCPs was investigated in in vivo studies.
(§2) Animals. Healthy animals with an intact immune system were used for all experiments. All animals were drug and test naïve and not involved in previous procedures. Animals were maintained on a 12 hour light-dark cycle with access to water and standard chow ad libitum. CRADL animal care staff conducted routine husbandry procedures and provided daily care and monitoring of all animals housed in CRADL's animal facilities. 8-week old female C57/BL6 (C57BL/6NCrl) mice were purchased from Charles River. All mice were acclimated for at least 48 hours upon arrival. Mice were assigned to treatment groups based on complete blood counts to achieve congruent profiles, body weight was recorded for dose adjustments, and ear tagged for identification. Investigators were not blinded to the identity of mice or samples. No statistical methods were utilized to determine sample size. The experiments described in this study were designed to use the minimum number of animals required.
(§3) Dosing. To assess the effect of different LSD1 inhibitors on hematopoietic stem and progenitor cells (HSPCs), wild-type mice were administered with Compound 3, Compound 2, or vehicle once daily for 7 days via oral gavage. Administered doses were as indicated in FIGS. 1-5 (Compound 3: 15 and 40 mg/kg, Compound 2, 15, 40, 60, and/or 80 mg/kg).
(§4) Drug preparation. As an example of formulation calculations, a correction factor (compound and lot dependent) of 1.5 will be used (e.g., one lot of Compound 2 actual correction factor 1.67; one lot of Compound 3 actual correction factor 1.69). Vehicle is 30% PEG400 (Millipore Sigma cat #8074850058), 5% Cremophor EL (Med Chem Express cat #HY-Y189) in sterile Milli-Q water.
(§5) Compound 3 or Compound 2 (salt) at a dose of 15 mg/kg dose was prepared by weighing out 0.3 mg×1.5 (example correction factor)=0.45 mg per mouse in 200 μl vehicle solution. Each mouse of 20 g received 200 μl of compound in vehicle solution (volume was corrected for body weight of each mouse at time of dosing). Calculations were scaled appropriately for higher doses. Compound was completely dissolved by swirling and gently pipetting in vehicle. Aliquots were stored for daily usage at 4 C in the dark. On the day of dosing, formulations and vehicle were removed from 4 C and allowed to warm to RT for at least 20 minutes before dosing. Formulations were swirled to achieve a homogenous solution prior to administration for 7 days, once daily, via oral gavage.
(§6) Processing of bones and blood for analysis. 24 hours after the last dose was administered, blood was collected via cheek bleed and mice were subsequently sacrificed via CO2 asphyxiation. Bones were separated from the mice, muscle and tissue removed, and bone marrow cells were isolated from mouse femora and tibiae by centrifugation. Red blood cells (RBC) were lysed by adding cold ACK lysis buffer (Thermo Fisher cat #A1049201) and incubating bone marrow cells (or […] of peripheral blood) on ice for 10 minutes. Following RBC lysis, samples were topped up with an appropriate volume of FACS buffer (PBS+2% BSA) and centrifuged at 3000 rpm for 5 minutes. Cell pellet was resuspended in FACS buffer and filtered through a […] filter to remove aggregated cell clumps and debris. Cells in the filtered suspension were counted and ˜2-3×10^6 cells removed for cell staining.
(§7) Flow Cytometry Analysis. For flow staining, @ 2-3×10e6 cells were centrifuged at 400×g, 5 minutes, 4 C in 1.5 ml centrifuge tubes. Supernatant was aspirated and cells were resuspended in 100 μl of staining cock-tail per tube. Tubes were incubated on ice for 30 minutes in the dark. 1 ml of FACS buffer (PBS+2% FBS) was added to each tube and then centrifuged at 400×g, 5 minutes, 4° C. Supernatant was aspirated, and cells were resuspended at 300 μl per tube in 7-AAD solution (5 μl/ml of FACS Buffer). […]
In general terms: In flow cytometry, cells or beads pass a laser one at a time.

The test system of another series is platelet (PLT) levels. Nature of the series: Complete blood count, platelet (PLT) levels, in treated mice. In kind it is in vivo, mice (C57/BL6). The following applies: once daily for 7 days, oral gavage. How it is done: as §2, §3
Compound 3 or Compound 2 (salt) at a dose of 15 mg/kg dose was prepared by weighing out 0.3 mg×1.5 (example correction factor)=0.45 mg per mouse in 200 μl vehicle solution. Each mouse of 20 g received 200 μl of compound in vehicle solution (volume was corrected for body weight of each mouse at time of dosing). Calculations were scaled appropriately for higher doses. Compound was completely dissolved by swirling and gently pipetting in vehicle. Aliquots were stored for daily usage at 4 C in the dark. […]
Processing of bones and blood for analysis. […] Cells in the filtered suspension were counted and ˜2-3×10^6 cells removed for cell staining.
Complete blood counts. Complete blood counts from the peripheral blood sample collected at end of study were measured at IDEXX BioAnalytics.

The subject of series [2] is LSK cells (HSC/progenitor cells: Lineage−, Sca-1+, c-Kit+). Briefly: In vivo expansion of LSK cells in bone marrow of wild-type mice (flow cytometry). Also noted: species or system mice (C57/BL6). As to conditions: oral gavage. How it is done:
as §1, §2, §3, §4, §5, §6, §7

Turning to `COc1ccc(-n2nc(NC[C@H]3CCC[C@H](N)C3)cc2-c2ccc(C#N)c(F)c2)cc1` [Compound 2], the “in vivo expansion of LT-HSC cells, fold increase” value in series [1] (40 mg/kg once daily for 7 days) is 1.5 fold; in series [1] (80 mg/kg once daily for 7 days), 1.6 fold. Also, the “number of LT-HSC cells, treated group” value in series [1] (40 mg/kg once daily for 7 days) was 250; in series [1] (80 mg/kg once daily for 7 days), 157. The “effect on complete blood count as evidenced by platelet (PLT) levels” value in the series with platelet (PLT) levels (three higher concentrations) is reported as “not significantly affected at any dose”; in the series with platelet (PLT) levels (two concentrations), “not significantly affected at either dose”. Besides, the “in vivo expansion of LSK cells, fold increase” value in series [2] (40 mg/kg once daily for 7 days) came to 1.7 fold; in series [2] (80 mg/kg once daily for 7 days) it was 2.3 fold. Besides, the “number of LSK cells, treated group” value in series [2] (40 mg/kg once daily for 7 days) is on record as 1714; in series [2] (80 mg/kg once daily for 7 days) it was 2215.
For `CN1CCN(C(=O)[C@H](CCCN[C@@H]2C[C@H]2c2ccc(F)cc2)NC(=O)c2ccc(-n3ccnn3)cc2)CC1` [IMG-7289, bomedemstat], in series [1] (15 mg/kg once daily for 7 days), the “in vivo expansion of LT-HSC cells, fold increase” value turned out to be 2 fold and the “number of LT-HSC cells, treated group” value was 252. Also, in series [1] (40 mg/kg once daily for 7 days), the “in vivo expansion of LT-HSC cells, fold increase” value was 7.5 fold and the “number of LT-HSC cells, treated group” value is given as 921. In addition, in the series with platelet (PLT) levels (two concentrations), the “effect on complete blood count as evidenced by platelet (PLT) levels” value is on record as “reduced in a dose-dependent manner”. Further, in series [2] (15 mg/kg once daily for 7 days), the “in vivo expansion of LSK cells, fold increase” value is on record as 2 fold and the “number of LSK cells, treated group” value was determined as 2545. In series [2] (40 mg/kg once daily for 7 days), the “in vivo expansion of LSK cells, fold increase” value is 6 fold.
